Measurements from ChEMBL document CHEMBL1201862, “PubChem BioAssay data set” (2004).
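Method: 48-hour compound exposure of cells in 96-well plates, five concentrations, linear interpolation of endpoints. GI50 = concentration required for 50% inhibition of growth.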 Activity calls are given as the source filed them. Cut-off read from the data, not from the text of the source: active = GI50 up to about 1.1 µM and inactive = higher.

Assays:
Assay in all cases: inhibition of tumour cell growth, NCI panel, 48 h
OVCAR-8 = system: OVCAR-8
RXF 393 = system: RXF 393
ACHN = system: ACHN
DMS-114 = system: DMS-114
Malme-3M = system: Malme-3M
DMS-273 = system: DMS-273
NCI-H23 = system: NCI-H23
SW-620 = system: SW-620
SNB-78 = system: SNB-78
K562 = system: K562
NCI-H226 = system: NCI-H226
DLD-1 = system: DLD-1
HCT-116 = system: HCT-116
HL-60 = system: HL-60
A498 = system: A498
CCRF-CEM = system: CCRF-CEM
SK-MEL-2 = system: SK-MEL-2
UACC-257 = system: UACC-257
SK-OV-3 = system: SK-OV-3
XF498 = system: XF498
KM12 = system: KM12
NCI-H522 = system: NCI-H522
HOP-18 = system: HOP-18
SNB-75 = system: SNB-75
SNB-19 = system: SNB-19
MOLT-4 = system: MOLT-4
SK-MEL-28 = system: SK-MEL-28
HOP-92 = system: HOP-92
UO-31 = system: UO-31
EKVX = system: EKVX
KM-20L2 = system: KM-20L2
HT-29 = system: HT-29
M19-MEL = system: M19-MEL
OVCAR-4 = system: OVCAR-4
COLO 205 = system: COLO 205
OVCAR-3 = system: OVCAR-3
SF-539 = system: SF-539
CAKI-1 = system: CAKI-1
SN12C = system: SN12C
HOP-62 = system: HOP-62
SR = system: SR
A549 = system: A549
IGROV-1 = system: IGROV-1
NCI-H460 = system: NCI-H460
SF-268 = system: SF-268
U-251 = system: U-251
OVCAR-5 = system: OVCAR-5
SK-MEL-5 = system: SK-MEL-5
SF-295 = system: SF-295
786-0 = system: 786-0
TK-10 = system: TK-10
LOX IMVI = system: LOX IMVI
LXFL 529 = system: LXFL 529
HCC 2998 = system: HCC 2998
M14 = system: M14
UACC-62 = system: UACC-62
HCT-15 = system: HCT-15

Measured: GI50

COc1ccc2c(c1)[n+]([O-])c(-c1ccc(Br)cc1)c(N)[n+]2[O-]
inactive: OVCAR-8 37.2 µM | RXF 393 34.6 µM | ACHN 47.8 µM | DMS-114 23.1 µM | Malme-3M 25.2 µM | DMS-273 24.1 µM | NCI-H23 22.4 µM | SW-620 40.2 µM | SNB-78 54.6 µM | K562 39.2 µM | NCI-H226 66.5 µM | DLD-1 44.6 µM | HCT-116 30.6 µM | HL-60 21.1 µM | A498 > 100 µM | CCRF-CEM 50.4 µM | SK-MEL-2 32.4 µM | UACC-257 32.4 µM | SK-OV-3 92.7 µM | XF498 68.4 µM | KM12 58.5 µM | NCI-H522 15.6 µM | HOP-18 > 100 µM | SNB-75 63.1 µM | SNB-19 > 100 µM | MOLT-4 36.8 µM | SK-MEL-28 23.2 µM | HOP-92 > 100 µM | UO-31 80.2 µM | EKVX 51.1 µM | KM-20L2 34.5 µM | HT-29 44.4 µM | M19-MEL 44.3 µM | OVCAR-4 35.6 µM | COLO 205 18.9 µM | OVCAR-3 35.4 µM | SF-539 36.1 µM | CAKI-1 51.5 µM | SN12C 47 µM | HOP-62 88.3 µM | SR 36.6 µM | A549 32.1 µM | IGROV-1 43.8 µM | NCI-H460 36.3 µM | SF-268 39.4 µM | U-251 37.4 µM | OVCAR-5 60 µM | SK-MEL-5 17.7 µM | SF-295 96.2 µM | 786-0 78 µM

COC1=C(Br)C(=O)c2nc(C)ccc2C1=O
14.1 µM: HCT-15
inactive: OVCAR-8 6.73 µM | RXF 393 11.2 µM | TK-10 18.4 µM | ACHN 10.7 µM | DMS-114 15 µM | Malme-3M 16.8 µM | LOX IMVI 8.39 µM | LXFL 529 6.28 µM | DMS-273 17.2 µM | HCC 2998 18.1 µM | M14 15 µM | NCI-H23 12.7 µM | SW-620 8.15 µM | SNB-78 18.7 µM | K562 8.67 µM | NCI-H226 22.8 µM | UACC-62 19 µM | DLD-1 5.33 µM | HCT-116 8.18 µM | A498 22 µM | SK-MEL-2 16.2 µM | UACC-257 13.6 µM | SK-OV-3 19.4 µM | KM12 17.7 µM | NCI-H522 6.97 µM | HOP-18 17.1 µM | SNB-75 19.2 µM | SNB-19 > 40.9 µM | MOLT-4 2.4 µM | SK-MEL-28 18.4 µM | HOP-92 7.18 µM | UO-31 18.5 µM | EKVX 19.3 µM | KM-20L2 19 µM | HT-29 19.4 µM | M19-MEL 14.1 µM | OVCAR-4 13.3 µM | COLO 205 12.1 µM | OVCAR-3 7.46 µM | SF-539 21.5 µM | CAKI-1 15.6 µM | SN12C 15.7 µM | HOP-62 > 44.6 µM | SR 3.56 µM | A549 20.3 µM | IGROV-1 19.6 µM | NCI-H460 15.8 µM | SF-268 17.5 µM | U-251 15.1 µM | OVCAR-5 20.4 µM | SK-MEL-5 18.1 µM | SF-295 20.4 µM | 786-0 14.1 µM
active: HL-60 0.993 µM | CCRF-CEM 0.871 µM
